Here are results for 19 compounds from PMC8841740, “Fluorescent Ligand-Based Discovery of Small-Molecule Sulfonamide Agonists for GPR120” (Frontiers in Chemistry, 2022).

One may read the melting point as the temperature, or range, at which the solid turns liquid.

Molecules are shown by their SMILES.

Data set [1] deals with GPR120. As to conditions: cited from earlier work.
For data set [2], the target named is T1, GPR120 (Homo sapiens, UniProt Q5NUL3).
T1 sequence (Q5NUL3 1-361): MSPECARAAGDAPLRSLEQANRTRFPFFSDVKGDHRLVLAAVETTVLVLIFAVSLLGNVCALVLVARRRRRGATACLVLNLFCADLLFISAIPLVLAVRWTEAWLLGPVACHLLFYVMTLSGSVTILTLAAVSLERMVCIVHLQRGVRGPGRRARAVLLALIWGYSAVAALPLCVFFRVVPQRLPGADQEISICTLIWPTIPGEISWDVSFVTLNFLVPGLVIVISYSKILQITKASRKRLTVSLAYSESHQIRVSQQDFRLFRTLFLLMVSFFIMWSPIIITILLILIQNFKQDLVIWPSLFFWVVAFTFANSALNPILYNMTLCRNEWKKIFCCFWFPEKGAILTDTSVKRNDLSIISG
The data set is described as follows: Preliminary screening of agonists by BRET competition with probe N1. Type of data set: binding. Also noted: expressed in transfected cells. As to conditions: 10 μM compound, probe N1 400 nM. As for the experimental part: HEK293 cells stably transfected with the GPR120-Rluc gene were seeded in a black 96-well plate (100 μl, 2 × 10^4 cells per well). After a 24-h incubation, the medium was removed, probe N1 (400 nM, 50 μl per well) was added, and 10 μM of the compound was added after a 30-min incubation as well. Followed by a 40-min incubation, coelenterazine (final concentration: 10 μM, 50 μl per well) was added to the plate. Afterward, the fluorescence intensity was measured at 450 and 550 nm with the microplate reader after another 10-min incubation.
For orientation: In BRET a luciferase serves as donor, and the signal depends on an acceptor being close.

In data set [3] the target is T1, GPR120. The data set is described as follows: BRET activity test (β-arrestin-2 recruitment, GPR120-YFP / β-arrestin-2-Rluc in HEK293 cells). Also noted: host or cells: HEK293 (transfected with both plasmids). Type of data set: cell-based. To be noted: for Emax (FFA4 β-arrestin2): GSK137647A used as a standard. As for the experimental part: GPR120-YFP and β-arresting-2-Rluc plasmids were transfected into HEK293 cells. After a 24-h incubation, the cells were seeded in a black 96-well plate (100 μl, 20,000 cells per well). Followed by a 24-h incubation, the solution was removed from the plate, and compounds with different concentrations (100 μl per well) and coelenterazine (10 μM, 100 μl per well) were added, followed by the fluorescence intensity was measured at 460 and 520 nm with the microplate reader ([Christiansen et al., 2016]; [Hill et al., 2018]).

Another data set has as its target T2, GPR40 (Homo sapiens, UniProt O14842).
T2 construct: expressed in transfected cells; host or cells: CHO (transient)
Nature of the data set: GPR40 Ca2+ flow assay in CHO cells with transient GPR40 gene. Type of data set: cell-based. To be noted: CHO cells, GPR40; read-out: FFA1 (Ca2+ pEC50) (converted). As for the experimental part: Ca^2+ flow activity was determined in HEK293 cells stably transfecting the GPR120-Rluc gene. After incubating the cells for 24 h, the medium was removed from the plate, and the cells were washed with HBSS buffer (without Ca^2+ and Mg^2+). Subsequently, a 2-μM Fluo-4 AM working solution in HBSS buffer (without Ca^2+ and Mg^2+) was added to the plate (40 μl per well). After incubating the cells for 20 min at 37°C, compound solution at different concentrations in HBSS buffer (per well 160 μl) was added. Followed by a 40-min incubation, the solution was removed from the plate, HEPES buffer (200 μl per well) was added, and the fluorescence intensity was detected using the microplate reader (Ex: 488 nm; Em: 520 nm) ([Watterson et al., 2017]).
Ca^2+ flow activity was determined in CHO cells with transient GPR40 gene by the same method as well, in which the GPR40 agonist TAK875 was used as a positive control.

In data set [4] the target is T1, GPR120. Nature of the data set: GPR120 Ca2+ flow assay in HEK293 cells stably transfecting the GPR120-Rluc gene. Type of data set: cell-based. As to conditions: for Emax (FFA4 Ca2+): GSK137647A used as a standard. Set-up: expressed in transfected cells. As for the experimental part: Ca^2+ flow activity was determined in HEK293 cells stably transfecting the GPR120-Rluc gene. After incubating the cells for 24 h, the medium was removed from the plate, and the cells were washed with HBSS buffer (without Ca^2+ and Mg^2+). Subsequently, a 2-μM Fluo-4 AM working solution in HBSS buffer (without Ca^2+ and Mg^2+) was added to the plate (40 μl per well).

Data set [5] can be described thus: Optical property of fluorescent probes. In kind it is physicochemical. As to conditions: for λabs: MeCN; for Φ (absolute quantum yield) / λem / λex: PBS; for SS (stokes shift): PBS buffer (pH = 7.4). As for the experimental part:
The stocking solution of probes was diluted with acetonitrile to 40 μM, and their ultraviolet absorption spectrum was scanned with an ultraviolet spectrophotometer. Secondly, the excitation and emission spectra of probes at 10, 20, 30, and 40 μM with PBS buffer were measured with a microplate reader. Moreover, the excitation and emission spectrum were recorded in four solvents: MeCN, DMSO, H2O, and EA, respectively.

Setting [6] is: Table 3, read-out: FFA4 (β-arrestin2 pEC50) (converted).
Where [7] appears, read: Table 3, read-out: FFA4 (Ca2+ pEC50) (converted).
Where [8] appears, read: GPR120, β-arrestin-2 activity test, read-out: pEC50 BRET (converted).
The mark [9] stands for this setting: GPR120, Ca2+ flow, HEK293 GPR120-Rluc cells, read-out: pEC50 Ca2+ assay (converted).

`O=S(=O)(Nc1ccc(Oc2ccccc2)cc1)c1ccc(-c2ccc(OC(F)(F)F)cc2)cc1` [Compound D4, N-(4-Phenoxyphenyl)-4′-(Trifluoromethoxy)-[1,1′-Biphenyl]-4-Sulfonamide] returned a melting point of 144 to 145 °C.
In the case of `O=S(=O)(Nc1ccc(OC(F)(F)F)cc1)c1ccc(-c2ccc(OC(F)(F)F)cc2)cc1` [Compound D2, 4′-(Trifluoromethoxy)-N-(4-(Trifluoromethoxy)phenyl)-[1,1′-Biphenyl]-4-Sulfonamide], the melting point lay in the range of 139 to 140 °C.
On the same count and under the same terms, then `Cc1cc(C)c(NS(=O)(=O)c2ccc(-c3ccc(Cl)cc3)cc2)c(C)c1` [Compound B8, 4′-Chloro-N-Mesityl-[1,1′-Biphenyl]-4-Sulfonamide], with 214 to 215 °C; and `Cc1cc(C)c(NS(=O)(=O)c2ccc(-c3ccc(F)cc3)cc2)c(C)c1` [Compound B2, 4′-Fluoro-N-Mesityl-[1,1′-Biphenyl]-4-Sulfonamide], with 214 to 215 °C.
For the compound `Cc1ccc(S(=O)(=O)NC2c3ccccc3Oc3ccccc32)cc1` [AH-7614], the “pEC50 (Literature)” value in the data set on GPR120 [1] was <4.5^16.
`Cc1cc(C)c(NS(=O)(=O)c2ccc(-c3ccc(Br)cc3)cc2)c(C)c1` [Compound B3, 4′-Bromo-N-Mesityl-[1,1′-Biphenyl]-4-Sulfonamide] showed a melting point of 176 to 177 °C.
The compound `Cc1cc(C)c(NS(=O)(=O)c2ccc(-c3ccccc3)cc2)c(C)c1` [Compound B1, N-Mesityl-[1,1′-biphenyl]-4-sulfonamide] registered a melting point of 165 to 166 °C.
`COc1ccc(NS(=O)(=O)c2ccc(-c3ccc(OC(F)(F)F)cc3)cc2)cc1OC` [Compound D1, N-(3,4-Dimethoxyphenyl)-4′-(Trifluoromethoxy)-[1,1′-Biphenyl]-4-Sulfonamide] came in with a melting point of 145 to 146 °C.
The same measure, in the same setting: then `Cc1cc(C)cc(COc2ccc(S(=O)(=O)Nc3c(C)cc(C)cc3C)cc2)c1` [Compound C1, 4-((3,5-Dimethylbenzyl)oxy)-N-mesitylbenzenesulfonamide], with 152 to 153 °C.
Compound `O=S(=O)(Nc1ccc(Cl)cc1Cl)c1ccc(-c2ccc3ccccc3c2)cc1` [Compound D7, N-(2,4-Dichlorophenyl)-4-(naphthalen-2-yl)benzenesulfonamide] came in with a melting point of 175 to 176 °C. The “inhibition rate in BRET screening compared with GSK137647A” value on GPR120 [2] was “higher than GSK137647A”. Also, the “Emax (FFA4 β-arrestin2)” value at GPR120 [3] is given as 1.17. In addition, the EC50 at GPR120 [3] (setting [6]) was 0.0166 µM. For the same compound, at GPR40, the EC50 was > 50.1 µM. For the same compound, the “Emax (FFA4 Ca2+)” value on GPR120 [4] stood at 0.752. In addition, the EC50 on GPR120 [4] (setting [7]) is 0.129 µM.
In the case of `Cc1cc(C)c(NS(=O)(=O)c2ccc(OCc3c(F)cccc3C(F)(F)F)cc2)c(C)c1` [Compound C2, 4-((2-Fluoro-6-(trifluoromethyl)benzyl)oxy)-N-mesitylbenzenesulfonamide], the melting point lay within 154 to 155 °C.
On to `Cc1cc(C)c(NS(=O)(=O)c2ccc(-c3ccc(N)c(F)c3)cc2)c(C)c1` [Compound B6, 4′-Amino-3′-Fluoro-N-Mesityl-[1,1′-Biphenyl]-4-Sulfonamide], for which the melting point lay in the range of 176 to 177 °C. In addition, the “inhibition rate in BRET screening compared with GSK137647A” value on GPR120 [2] is recorded as “higher than GSK137647A”. Besides, the “Emax (FFA4 β-arrestin2)” value at GPR120 [3] is 0.881. Besides, the EC50 on GPR120 [3] (setting [6]) is 0.132 µM. Moreover, the EC50 on GPR40 was > 50.1 µM. For the same compound, the “Emax (FFA4 Ca2+)” value at GPR120 [4] was 1.25. The EC50 at GPR120 [4] (setting [7]) was 0.204 µM.
As for `Cc1cc(C)c(NS(=O)(=O)c2ccc(-c3ccc(OC(F)(F)F)cc3)cc2)c(C)c1` [Compound B5, N-Mesityl-4′-(Trifluoromethoxy)-[1,1′-Biphenyl]-4-Sulfonamide], the melting point fell in the range of 169 to 170 °C. Besides, the “inhibition rate in BRET screening compared with GSK137647A” value on GPR120 [2] is given as “higher than GSK137647A”. On GPR120 [3], the “Emax (FFA4 β-arrestin2)” value was 0.790. Also, the EC50 on GPR120 [3] (setting [6]) is 0.0437 µM. Further, the EC50 at GPR40 is > 50.1 µM. The “Emax (FFA4 Ca2+)” value at GPR120 [4] was determined as 1.27. Also, the EC50 on GPR120 [4] (setting [7]) was 0.0813 µM.
In the case of `Cc1cc(C)c(NS(=O)(=O)c2ccc(OCc3ccc(Br)cc3)cc2)c(C)c1` [Compound C3, 4-((4-Bromobenzyl)oxy)-N-mesitylbenzenesulfonamide], the melting point lay in the range of 161 to 162 °C.
Regarding `Cc1ccc(-c2ccc(S(=O)(=O)Nc3c(C)cc(C)cc3C)cc2)cc1` [Compound B4, N-Mesityl-4′-Methyl-[1,1′-Biphenyl]-4-Sulfonamide], the melting point was in the range of 195 to 196 °C.
Compound `Cc1cc(C)c(NS(=O)(=O)c2ccc(NCCCCN3C(=O)c4cccc5c(N(C)C)ccc(c45)C3=O)cc2)c(C)c1` [Compound N3, 4-((4-(6-(Dimethylamino)-1,3-dioxo-1H-benzo[de]isoquinolin-2(3H)-yl)butyl)amino)-N-mesitylbenzenesulfonamide] registered a melting point of 184 to 185 °C. In data set [5], the λabs was found to be 417 nm, the “Φ (absolute quantum yield)” value amounted to 1.03%, the λem came out at 560 nm and the λex was 438 nm. In data set [5], the “SS (stokes shift)” value is listed as 122 nm. Moreover, the EC50 on GPR120 [3] (setting [8]) was 1.78 µM. Moreover, the EC50 at GPR120 [4] (setting [9]) is 8.91 µM.
Regarding `Cc1cc(C)c(NS(=O)(=O)c2ccc(-c3ccc4ccccc4c3)cc2)c(C)c1` [Compound B7, N-Mesityl-4-(Naphthalen-2-yl)benzenesulfonamide], the melting point is 211 to 212 °C. The “inhibition rate in BRET screening compared with GSK137647A” value on GPR120 [2] is “higher than GSK137647A”. Also, at GPR120 [3], the “Emax (FFA4 β-arrestin2)” value was 0.894. Moreover, at GPR120 [3] (setting [6]), the EC50 was 0.0195 µM. Further, the EC50 on GPR40 was > 50.1 µM. Also, the “Emax (FFA4 Ca2+)” value at GPR120 [4] is reported as 0.285. The EC50 at GPR120 [4] (setting [7]) is 0.138 µM.
The compound `COc1cc(NS(=O)(=O)c2ccc(-c3ccc(OC(F)(F)F)cc3)cc2)cc(OC)c1OC` [Compound D3, 4′-(Trifluoromethoxy)-N-(3,4,5-Trimethoxyphenyl)-[1,1′-Biphenyl]-4-Sulfonamide] yielded a melting point of 136 to 137 °C.
`Cc1cc(C)c(NS(=O)(=O)c2ccc(NCCCN3C(=O)c4cccc5c(N(C)C)ccc(c45)C3=O)cc2)c(C)c1` [Compound N2, 4-((3-(6-(Dimethylamino)-1,3-dioxo-1H-benzo[de]isoquinolin-2(3H)-yl)propyl)amino)-N-mesitylbenzenesulfonamide]: the melting point is 103 to 104 °C. In data set [5], the λabs stood at 418 nm, the “Φ (absolute quantum yield)” value stood at 2.28%, the λem is given as 562 nm and the λex worked out at 439 nm. The “SS (stokes shift)” value in data set [5] turned out to be 123 nm. For the same compound, the EC50 on GPR120 [3] (setting [8]) is 0.562 µM. The EC50 at GPR120 [4] (setting [9]) was 6.31 µM.
